Laboratory results reported in ChEMBL document CHEMBL3046430, “Synthesis of some new 3,5-diamino-4-(4-fluorophenylazo)-1-aryl/heteroarylpyrazoles as antimicrobial agents” (2013).
Converted amounts (≈) assume the structure as drawn. The source made the active and inactive calls. No cut-off for these calls is given here.

Tests used:
Format in all cases: functional
Saccharomyces cerevisiae [1] = test: Antifungal activity against Saccharomyces cerevisiae after 7 days by agar well diffusion method
Aspergillus niger [2] = test: Antifungal activity against Aspergillus niger after 7 days by agar well diffusion method
Candida albicans [3] = test: Antifungal activity against Candida albicans after 7 days by agar well diffusion method
Escherichia coli [4] = test: Antibacterial activity against Escherichia coli after 24 hr by agar well diffusion method
Klebsiella aerogenes [5] = test: Antibacterial activity against Enterobacter aerogenes after 24 hr by agar well diffusion method
Bacillus subtilis [6] = test: Antibacterial activity against Bacillus subtilis after 24 hr by agar well diffusion method
Staphylococcus aureus [7] = test: Antibacterial activity against Staphylococcus aureus after 24 hr by agar well diffusion method
Saccharomyces cerevisiae [8] = test: Antifungal activity against Saccharomyces cerevisiae at 2 to 64 ug/ml after 7 days by agar well diffusion method
Aspergillus niger [9] = test: Antifungal activity against Aspergillus niger at 2 to 64 ug/ml after 7 days by agar well diffusion method
Candida albicans [10] = test: Antifungal activity against Candida albicans at 2 to 64 ug/ml after 7 days by agar well diffusion method
Escherichia coli [11] = test: Antibacterial activity against Escherichia coli at 2 to 64 ug/ml after 24 hr by agar well diffusion method
Klebsiella aerogenes [12] = test: Antibacterial activity against Enterobacter aerogenes at 2 to 64 ug/ml after 24 hr by agar well diffusion method
Bacillus subtilis [13] = test: Antibacterial activity against Bacillus subtilis at 2 to 64 ug/ml after 24 hr by agar well diffusion method
Staphylococcus aureus [14] = test: Antibacterial activity against Staphylococcus aureus at 2 to 64 ug/ml after 24 hr by agar well diffusion method

SMILES | MIC (Saccharomyces cerevisiae [1]) | MIC (Aspergillus niger [2]) | MIC (Candida albicans [3]; 168 h) [µg/mL] | MIC (Escherichia coli [4]) | MIC (Klebsiella aerogenes [5]) | MIC (Bacillus subtilis [6]) | MIC (Staphylococcus aureus [7]) | Activity (Saccharomyces cerevisiae [8]) | Activity (Aspergillus niger [9]) | diameter of the inhibition zone (DIZ) (Candida albicans [10]) [mm] | Activity (Escherichia coli [11]) | diameter of the inhibition zone (DIZ) (Klebsiella aerogenes [12]) [mm] | Activity (Bacillus subtilis [13]) | Activity (Staphylococcus aureus [14]) | diameter of the inhibition zone (DIZ) (Escherichia coli [11]) [mm] | diameter of the inhibition zone (DIZ) (Bacillus subtilis [13]) [mm] | MIC (Saccharomyces cerevisiae [1]; 168 h) [µg/mL] | diameter of the inhibition zone (DIZ) (Saccharomyces cerevisiae [8]) [mm] | also measured
Nc1nn(-c2nc3ccc(Cl)cc3s2)c(N)c1/N=N/c1ccc(F)cc1 | inactive | inactive | 2 (≈ 5.16 µM) | inactive | 2 µg/mL (≈ 5.16 µM) | inactive | inactive | inactive | inactive | 12 | inactive | 10 | inactive | inactive |  |  |  |  | 
C=CC1=C(C(=O)O)N2C(=O)[C@@H](NC(=O)/C(=N\OCC(=O)O)c3csc(N)n3)[C@H]2SC1 [CEFIXIME] | inactive | inactive |  | 2 µg/mL (≈ 4.41 µM) | 2 µg/mL (≈ 4.41 µM) | 4 µg/mL (≈ 8.82 µM) | 2 µg/mL (≈ 4.41 µM) | inactive | inactive |  |  | 15 |  |  | 14 | 2.8 |  |  | MIC (Candida albicans [3]): inactive; Activity (Candida albicans [10]): inactive; diameter of the inhibition zone (DIZ) (Staphylococcus aureus [14]): 2.9 mm
Nc1nn(-c2ccccc2)c(N)c1/N=N/c1ccc(F)cc1 |  | inactive | 2 (≈ 6.75 µM) | 2 µg/mL (≈ 6.75 µM) | 32 µg/mL (≈ 108 µM) | 8 µg/mL (≈ 27 µM) | inactive |  | inactive | 7 |  | 12 |  | inactive | 12 | 10 | 4 (≈ 13.5 µM) | 12 | 
Cc1cc(-n2nc(N)c(/N=N/c3ccc(F)cc3)c2N)nc2ccccc12 | inactive | inactive | 64 (≈ 177 µM) | 2 µg/mL (≈ 5.53 µM) | 8 µg/mL (≈ 22.1 µM) | 4 µg/mL (≈ 11.1 µM) | 2 µg/mL (≈ 5.53 µM) | inactive | inactive | 10 |  | 15 |  |  | 15 | 12 |  |  | diameter of the inhibition zone (DIZ) (Staphylococcus aureus [14]): 2.6 mm
Cc1ccc2nc(-n3nc(N)c(/N=N/c4ccc(F)cc4)c3N)sc2c1 | inactive | inactive | 2 (≈ 5.44 µM) | inactive | 2 µg/mL (≈ 5.44 µM) | inactive | inactive | inactive | inactive | 11 | inactive | 10.5 | inactive | inactive |  |  |  |  | 
Nc1nn(-c2ccc(Cl)cc2)c(N)c1/N=N/c1ccc(F)cc1 | inactive | inactive | 2 (≈ 6.05 µM) | inactive | 2 µg/mL (≈ 6.05 µM) | inactive | inactive | inactive | inactive | 9 | inactive | 12 | inactive | inactive |  |  |  |  | 
Nc1nn(-c2ccc([N+](=O)[O-])cc2[N+](=O)[O-])c(N)c1/N=N/c1ccc(F)cc1 |  |  | 2 (≈ 5.18 µM) | 2 µg/mL (≈ 5.18 µM) | 2 µg/mL (≈ 5.18 µM) | 4 µg/mL (≈ 10.4 µM) | inactive |  |  | 11 |  | 13 |  | inactive | 13 | 10 | 8 (≈ 20.7 µM) | 12 | MIC (Aspergillus niger [2]; 168 h): 2 µg/mL (≈ 5.18 µM); diameter of the inhibition zone (DIZ) (Aspergillus niger [9]): 10 mm
Nc1nn(-c2nc3ccc(F)cc3s2)c(N)c1/N=N/c1ccc(F)cc1 | inactive |  |  | inactive | 4 µg/mL (≈ 10.8 µM) | 4 µg/mL (≈ 10.8 µM) | inactive | inactive |  |  | inactive | 11 |  | inactive |  | 12 |  |  | MIC (Aspergillus niger [2]; 168 h): 2 µg/mL (≈ 5.39 µM); MIC (Candida albicans [3]): inactive; diameter of the inhibition zone (DIZ) (Aspergillus niger [9]): 14 mm; Activity (Candida albicans [10]): inactive
Nc1nn(-c2nc3ccccc3s2)c(N)c1/N=N/c1ccc(F)cc1 |  | inactive | 2 (≈ 5.66 µM) | 8 µg/mL (≈ 22.6 µM) | 2 µg/mL (≈ 5.66 µM) | 6 µg/mL (≈ 17 µM) | inactive |  | inactive | 12 |  | 14 |  | inactive | 12 | 9 | 6 (≈ 17 µM) | 9 | 
OC(Cn1cncn1)(Cn1cncn1)c1ccc(F)cc1F [FLUCONAZOLE] |  |  | 2 (≈ 6.53 µM) | inactive | inactive | inactive | inactive |  |  | 10 | inactive |  | inactive | inactive |  |  | 4 (≈ 13.1 µM) | 12 | MIC (Aspergillus niger [2]; 168 h): 2 µg/mL (≈ 6.53 µM); diameter of the inhibition zone (DIZ) (Aspergillus niger [9]): 13 mm; Activity (Klebsiella aerogenes [12]): inactive
Cc1cc(C)nc(-n2nc(N)c(/N=N/c3ccc(F)cc3)c2N)n1 |  | inactive | 2 (≈ 6.13 µM) | inactive | 8 µg/mL (≈ 24.5 µM) | inactive | 16 µg/mL (≈ 49 µM) |  | inactive | 9 | inactive | 9 | inactive |  |  |  | 8 (≈ 24.5 µM) | 10 | diameter of the inhibition zone (DIZ) (Staphylococcus aureus [14]): 4.5 mm
